According to the supplement of paper PMC4628005:

Tests used:
Settings in all cases: drug exposure time: 96 h
Bortezomib = compound: CC(C)C[C@H](NC(=O)[C@H](Cc1ccccc1)NC(=O)c1cnccn1)B(O)O [Bortezomib]
Procedure: (§1)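 Same SRB 96 h IC50 screen on breast cancer cell lines (RPMI 1640 + 10% FBS, collagen I-coated 96-well plates, triplicates, 12 dilutions), for drugs with a different dose range: Bortezomib up to 2e-5 M; Sirolimus and 17-AAG up to 2e-6 M. Sirolimus values at the 2e-6 M top dose are censored.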

17-AAG = compound: C=CCNC1=C2C[C@@H](C)C[C@H](OC)[C@H](O)[C@@H](C)/C=C(\C)[C@H](OC(N)=O)[C@@H](OC)/C=C\C=C(/C)C(=O)NC(=CC1=O)C2=O [17-AAG]
Procedure: as §1

Sirolimus = compound: CO[C@H]1C[C@@H]2CC[C@@H](C)[C@@](O)(O2)C(=O)C(=O)N2CCCC[C@H]2C(=O)O[C@H]([C@H](C)C[C@@H]2CC[C@@H](O)[C@H](OC)C2)CC(=O)[C@H](C)/C=C(\C)[C@@H](O)[C@@H](OC)C(=O)[C@H](C)C[C@H](C)/C=C/C=C/C=C/1C [Sirolimus]
Procedure: as §1

MI-219 = compound: CC(C)(C)C[C@H]1N[C@@H](C(=O)NCC[C@H](O)CO)[C@H](c2cccc(Cl)c2)[C@@]12C(=O)Nc1cc(Cl)c(F)cc12 [MI-219]
Procedure: (§2)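 Breast cancer cell lines were grown in RPMI 1640 with 10% FBS on collagen I-coated 96-well plates and treated for 96 h (from 24 h after seeding) with 12 dilutions per drug, in triplicate. Growth was read by sulforhodamine B total-protein staining (absorbance 570 nm) relative to diluent control, and IC50 was calculated. The top dose was 1e-5 M for most drugs; Bortezomib went to 2e-5 M and Sirolimus and 17-AAG to 2e-6 M[…].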

Docetaxel = compound: CC(=O)O[C@@]12CO[C@@H]1C[C@H](O)[C@@]1(C)C(=O)[C@H](O)C3=C(C)[C@@H](OC(=O)[C@H](O)[C@@H](NC(=O)OC(C)(C)C)c4ccccc4)C[C@@](O)([C@@H](OC(=O)c4ccccc4)[C@H]21)C3(C)C [Docetaxel]
Procedure: as §2

Sunitinib = compound: CCN(CC)CCNC(=O)c1c(C)[nH]c(/C=C2\C(=O)Nc3ccc(F)cc32)c1C [Sunitinib]
Procedure: as §2

Sorafenib = compound: CNC(=O)c1cc(Oc2ccc(NC(=O)Nc3ccc(Cl)c(C(F)(F)F)c3)cc2)ccn1 [Sorafenib]
Procedure: as §2

Belinostat = compound: O=C(/C=C/c1cccc(S(=O)(=O)Nc2ccccc2)c1)NO [Belinostat]
Procedure: as §2

5-Fluorouracil = compound: O=c1[nH]cc(F)c(=O)[nH]1 [5-Fluorouracil]
Procedure: as §2

Gefitinib = compound: COc1cc2ncnc(Nc3ccc(F)c(Cl)c3)c2cc1OCCCN1CCOCC1 [Gefitinib]
Procedure: as §2

Vorinostat = compound: O=C(CCCCCCC(=O)Nc1ccccc1)NO [Vorinostat]
Procedure: as §2

Nutlin-3 = compound: COc1ccc(C2=N[C@@H](c3ccc(Cl)cc3)[C@@H](c3ccc(Cl)cc3)N2C(=O)N2CCNC(=O)C2)c(OC(C)C)c1 [Nutlin-3]
Procedure: as §2

Dasatinib = compound: Cc1nc(Nc2ncc(C(=O)Nc3c(C)cccc3Cl)s2)cc(N2CCN(CCO)CC2)n1 [Dasatinib]
Procedure: as §2

Panobinostat = compound: Cc1[nH]c2ccccc2c1CCNCc1ccc(/C=C/C(=O)NO)cc1 [Panobinostat]
Procedure: as §2

Decitabine = compound: Nc1ncn([C@H]2C[C@H](O)[C@@H](CO)O2)c(=O)n1 [Decitabine]
Procedure: as §2

Brivanib = compound: Cc1cc2c(F)c(Oc3ncnn4cc(OC[C@@H](C)O)c(C)c34)ccc2[nH]1 [Brivanib]
Procedure: as §2

Quisinostat = compound: Cn1cc(CNCC2CCN(c3ncc(C(=O)NO)cn3)CC2)c2ccccc21 [Quisinostat]
Procedure: as §2

Lapatinib = compound: CS(=O)(=O)CCNCc1ccc(-c2ccc3ncnc(Nc4ccc(OCc5cccc(F)c5)c(Cl)c4)c3c2)o1 [Lapatinib]
Procedure: as §2

Methotrexate = compound: CN(Cc1cnc2nc(N)nc(N)c2n1)c1ccc(C(=O)N[C@@H](CCC(=O)O)C(=O)O)cc1 [Methotrexate]
Procedure: as §2

Paclitaxel = compound: CC(=O)O[C@H]1C(=O)[C@@]2(C)[C@H]([C@H](OC(=O)c3ccccc3)[C@]3(O)C[C@H](OC(=O)[C@H](O)[C@@H](NC(=O)c4ccccc4)c4ccccc4)C(C)=C1C3(C)C)[C@]1(OC(C)=O)CO[C@@H]1C[C@@H]2O [Paclitaxel]
Procedure: as §2

Serdemetan = compound: c1ccc2c(CCNc3ccc(Nc4ccncc4)cc3)c[nH]c2c1 [Serdemetan]
Procedure: as §2

Azacitidine = compound: Nc1ncn([C@@H]2O[C@H](CO)[C@@H](O)[C@H]2O)c(=O)n1 [Azacitidine]
Procedure: as §2

Vandetanib = compound: COc1cc2/c(=N/c3ccc(Br)cc3F)nc[nH]c2cc1OCC1CCN(C)CC1 [Vandetanib]
Procedure: as §2

Erlotinib = compound: C#Cc1cccc(Nc2ncnc3cc(OCCOC)c(OCCOC)cc23)c1 [Erlotinib]
Procedure: as §2

Mitoxantrone = compound: O=C1c2c(O)ccc(O)c2C(=O)c2c(NCCNCCO)ccc(NCCNCCO)c21 [Mitoxantrone]
Procedure: as §2

Tamoxifen = compound: CC/C(=C(\c1ccccc1)c1ccc(OCCN(C)C)cc1)c1ccccc1 [Tamoxifen]
Procedure: as §2

Cisplatin = compound: N.N.[Cl][Pt][Cl] [Cisplatin]
Procedure: as §2

Tipifarnib = compound: Cn1cncc1[C@@](N)(c1ccc(Cl)cc1)c1ccc2c(c1)c(-c1cccc(Cl)c1)cc(=O)n2C [Tipifarnib]
Procedure: as §2

ARQ197 = compound: O=C1NC(=O)[C@@H](c2cn3c4c(cccc24)CCC3)[C@@H]1c1c[nH]c2ccccc12 [ARQ197]
Procedure: as §2

Doxorubicin = compound: COc1cccc2c1C(=O)c1c(O)c3c(c(O)c1C2=O)C[C@@](O)(C(=O)CO)C[C@@H]3O[C@H]1C[C@H](N)[C@H](O)[C@H](C)O1 [Doxorubicin]
Procedure: as §2

Row | Test System | IC50 (SRB growth assay) (Bortezomib) [nM] | IC50 (SRB growth assay) (17-AAG) [nM] | IC50 (SRB growth assay) (Sirolimus) [nM] | IC50 (SRB growth assay) (MI-219) [nM] | IC50 (SRB growth assay) (Docetaxel) [nM] | IC50 (SRB growth assay) (Sunitinib) [nM] | IC50 (SRB growth assay) (Sorafenib) [nM] | IC50 (SRB growth assay) (Belinostat) [nM] | IC50 (SRB growth assay) (5-Fluorouracil) [nM] | IC50 (SRB growth assay) (Gefitinib) [nM] | IC50 (SRB growth assay) (Vorinostat) [nM] | IC50 (SRB growth assay) (Nutlin-3) [nM] | IC50 (SRB growth assay) (Dasatinib) [nM] | IC50 (SRB growth assay) (Panobinostat) [nM] | IC50 (SRB growth assay) (Decitabine) [nM] | IC50 (SRB growth assay) (Brivanib) [nM] | IC50 (SRB growth assay) (Quisinostat) [nM] | IC50 (SRB growth assay) (Lapatinib) [nM] | IC50 (SRB growth assay) (Methotrexate) [nM] | IC50 (SRB growth assay) (Paclitaxel) [nM] | IC50 (SRB growth assay) (Serdemetan) [nM] | IC50 (SRB growth assay) (Azacitidine) [nM] | IC50 (SRB growth assay) (Vandetanib) [nM] | IC50 (SRB growth assay) (Erlotinib) [nM] | IC50 (SRB growth assay) (Mitoxantrone) [nM] | IC50 (SRB growth assay) (Tamoxifen) [nM] | IC50 (SRB growth assay) (Cisplatin) [nM] | IC50 (SRB growth assay) (Tipifarnib) [nM] | IC50 (SRB growth assay) (ARQ197) [nM] | IC50 (SRB growth assay) (Doxorubicin) [nM]
1 | HCC 1937 | 5.14 | 26.7 | 5.98 | > 10000 | 1.08 | 6000 | 6230 | 572 | 5280 | > 10000 | 1760 | > 10000 | 4730 | 42.1 | 1930 | > 10000 | 43.9 | 1930 | 65.5 | 4.02 | 1050 | > 10000 | 4060 | > 10000 | 76.6 | 5720 | – | – | – | –
2 | Hs 578T | 5.74 | 49.4 | 0.946 | > 10000 | 0.796 | 7020 | 6640 | 543 | > 10000 | > 10000 | 999 | > 10000 | 1360 | 18.5 | > 10000 | > 10000 | 12.7 | > 10000 | 26 | 1.88 | 2550 | 5800 | 5710 | > 10000 | 16.8 | > 10000 | > 10000 | 3930 | 696 | 57.7
3 | HCC 1806 | 5.96 | 53.6 | > 2000 | > 10000 | 0.597 | 4990 | 5250 | 216 | 5080 | 513 | 632 | > 10000 | 178 | 15.8 | 1190 | > 10000 | 8.95 | 589 | 2.99 | 1.97 | 826 | > 10000 | 580 | 327 | 20.1 | 5990 | > 10000 | 263 | 501 | 20.8
4 | SKBR 7 | 24.6 | 74.1 | 0.886 | 3200 | 0.338 | 5350 | 2400 | 470 | 1580 | > 10000 | 918 | 7530 | > 10000 | 15.9 | 2510 | > 10000 | 7.17 | 2510 | 11.1 | 1.07 | 798 | > 10000 | 7760 | > 10000 | 3.02 | 8320 | – | – | – | –
5 | BT 549 | 3.97 | 58.4 | 0.597 | > 10000 | 0.598 | 3290 | 6040 | 436 | 3720 | > 10000 | 764 | > 10000 | 565 | 11.1 | 256 | 6300 | 12.4 | 256 | 22.4 | 1.44 | 1260 | > 10000 | 3410 | 6100 | 1.88 | 7410 | – | – | – | –
6 | SUM 1315 MO2 | 6.55 | 55.1 | 0.917 | > 10000 | 1.54 | 4280 | 5570 | 703 | > 10000 | > 10000 | 1190 | > 10000 | 53.7 | 31.7 | – | 7200 | 29.6 | 6720 | 138 | 3.29 | 1190 | 3600 | 2590 | > 10000 | 2.7 | > 10000 | > 10000 | – | – | 17.5
7 | BT 474 | 5.49 | 19.5 | 0.119 | > 10000 | 0.891 | 5780 | 3500 | 191 | > 10000 | 731 | 376 | > 10000 | 611 | 3.31 | > 10000 | > 10000 | 1.85 | > 10000 | > 10000 | 2.18 | 2280 | > 10000 | 2770 | 1970 | 23.3 | 4130 | – | – | – | –
